# Test system: Klebsiella pneumoniae
# Experiment: Antimicrobial activity against Klebsiella pneumoniae containing PFGE clone B expressing beta-lactamase Oxa-48, TEM-1, CTX-M-15 and Oxa-1 by Etest
# Format: functional
row,Structure (SMILES),MIC [µg/mL]
1,CCN[C@@H]1C[C@H](N)[C@@H](O[C@H]2OC(CN)=CC[C@H]2N)[C@H](O)[C@H]1O[C@H]1OC[C@](C)(O)[C@H](NC)[C@H]1O [NETILMICIN],3
2,CCn1cc(C(=O)O)c(=O)c2cc(F)c(N3CCNCC3)cc21 [NORFLOXACIN],> 256
3,CC1COc2c(N3CCN(C)CC3)c(F)cc3c(=O)c(C(=O)O)cn1c23 (centres undefined) [OFLOXACIN],> 64
4,CCN1CCN(C(=O)N[C@@H](C(=O)N[C@@H]2C(=O)N3[C@@H]2SC(C)(C)[C@@H]3C(=O)O)c2ccccc2)C(=O)C1=O [PIPERACILLIN],> 512
5,CN(C)[C@@H]1C(O)=C(C(N)=O)C(=O)[C@@]2(O)C(O)=C3C(=O)c4c(O)cccc4[C@@](C)(O)[C@H]3C[C@@H]12 [TETRACYCLINE],> 256

# Test system: Klebsiella pneumoniae
# Experiment: Antimicrobial activity against Klebsiella pneumoniae isolate 11 expressing beta-lactamase Oxa-48, TEM-1 and Oxa-1 by Etest in presence of beta-lactamase inhibitor Tazobactam
# Format: functional
row,Structure (SMILES),MIC [µg/mL]
1,CCN1CCN(C(=O)N[C@@H](C(=O)N[C@@H]2C(=O)N3[C@@H]2SC(C)(C)[C@@H]3C(=O)O)c2ccccc2)C(=O)C1=O [PIPERACILLIN],> 512

# Test system: Escherichia coli
# Experiment: Antimicrobial activity against Escherichia coli J53 harboring beta-lactamase Oxa-48 by Etest in presence of beta-lactamase inhibitor Tazobactam
# Format: functional
row,Structure (SMILES),MIC [µg/mL]
1,CCN1CCN(C(=O)N[C@@H](C(=O)N[C@@H]2C(=O)N3[C@@H]2SC(C)(C)[C@@H]3C(=O)O)c2ccccc2)C(=O)C1=O [PIPERACILLIN],64

# Test system: Escherichia coli
# Experiment: Antimicrobial activity against Escherichia coli J53 harboring beta-lactamase TEM-1, SHV-12 and Oxa-9 by Etest
# Format: functional
row,Structure (SMILES),MIC [µg/mL]
1,CCN1CCN(C(=O)N[C@@H](C(=O)N[C@@H]2C(=O)N3[C@@H]2SC(C)(C)[C@@H]3C(=O)O)c2ccccc2)C(=O)C1=O [PIPERACILLIN],> 512

# Test system: Escherichia coli
# Experiment: Antimicrobial activity against Escherichia coli J53 harboring beta-lactamase Oxa-48 by Etest
# Format: functional
row,Structure (SMILES),MIC [µg/mL]
1,CCN1CCN(C(=O)N[C@@H](C(=O)N[C@@H]2C(=O)N3[C@@H]2SC(C)(C)[C@@H]3C(=O)O)c2ccccc2)C(=O)C1=O [PIPERACILLIN],> 512

# Test system: Escherichia coli
# Experiment: Antimicrobial activity against Escherichia coli J53 harboring beta-lactamase TEM-1, CTX-M-15 and Oxa-1 by Etest in presence of beta-lactamase inhibitor Tazobactam
# Format: functional
row,Structure (SMILES),MIC [µg/mL]
1,CCN1CCN(C(=O)N[C@@H](C(=O)N[C@@H]2C(=O)N3[C@@H]2SC(C)(C)[C@@H]3C(=O)O)c2ccccc2)C(=O)C1=O [PIPERACILLIN],> 4

# Test system: Escherichia coli
# Experiment: Antimicrobial activity against Escherichia coli J53 by Etest
# Format: functional
row,Structure (SMILES),MIC [µg/mL]
1,CCN1CCN(C(=O)N[C@@H](C(=O)N[C@@H]2C(=O)N3[C@@H]2SC(C)(C)[C@@H]3C(=O)O)c2ccccc2)C(=O)C1=O [PIPERACILLIN],4

# Test system: Klebsiella pneumoniae
# Experiment: Antimicrobial activity against Klebsiella pneumoniae containing PFGE clone A expressing beta-lactamase Oxa-48, TEM-1, SHV-12 and Oxa-9 by Etest in presence of beta-lactamase inhibitor Tazobactam
# Format: functional
row,Structure (SMILES),MIC [µg/mL]
1,CCN1CCN(C(=O)N[C@@H](C(=O)N[C@@H]2C(=O)N3[C@@H]2SC(C)(C)[C@@H]3C(=O)O)c2ccccc2)C(=O)C1=O [PIPERACILLIN],> 512

# Test system: Escherichia coli
# Experiment: Antimicrobial activity against Escherichia coli J53 harboring beta-lactamase TEM-1, CTX-M-15 and Oxa-1 by Etest
# Format: functional
row,Structure (SMILES),MIC [µg/mL]
1,CCN1CCN(C(=O)N[C@@H](C(=O)N[C@@H]2C(=O)N3[C@@H]2SC(C)(C)[C@@H]3C(=O)O)c2ccccc2)C(=O)C1=O [PIPERACILLIN],> 512

# Test system: Klebsiella pneumoniae
# Experiment: Antimicrobial activity against Klebsiella pneumoniae isolate 21 expressing beta-lactamase Oxa-48, TEM-1 and Oxa-9 by Etest
# Format: functional
row,Structure (SMILES),MIC [µg/mL]
1,CCN1CCN(C(=O)N[C@@H](C(=O)N[C@@H]2C(=O)N3[C@@H]2SC(C)(C)[C@@H]3C(=O)O)c2ccccc2)C(=O)C1=O [PIPERACILLIN],> 512

# Test system: Klebsiella pneumoniae
# Experiment: Antimicrobial activity against Klebsiella pneumoniae isolate 21 expressing beta-lactamase Oxa-48, TEM-1 and Oxa-9 by Etest in presence of beta-lactamase inhibitor Tazobactam
# Format: functional
row,Structure (SMILES),MIC [µg/mL]
1,CCN1CCN(C(=O)N[C@@H](C(=O)N[C@@H]2C(=O)N3[C@@H]2SC(C)(C)[C@@H]3C(=O)O)c2ccccc2)C(=O)C1=O [PIPERACILLIN],> 512

# Test system: Escherichia coli
# Experiment: Antimicrobial activity against Escherichia coli J53 by Etest in presence of beta-lactamase inhibitor Tazobactam
# Format: functional
row,Structure (SMILES),MIC [µg/mL]
1,CCN1CCN(C(=O)N[C@@H](C(=O)N[C@@H]2C(=O)N3[C@@H]2SC(C)(C)[C@@H]3C(=O)O)c2ccccc2)C(=O)C1=O [PIPERACILLIN],4

# Test system: Escherichia coli
# Experiment: Antimicrobial activity against Escherichia coli J53 harboring beta-lactamase TEM-1, SHV-12 and Oxa-9 by Etest in presence of beta-lactamase inhibitor Tazobactam
# Format: functional
row,Structure (SMILES),MIC [µg/mL]
1,CCN1CCN(C(=O)N[C@@H](C(=O)N[C@@H]2C(=O)N3[C@@H]2SC(C)(C)[C@@H]3C(=O)O)c2ccccc2)C(=O)C1=O [PIPERACILLIN],> 4

# Test system: Klebsiella pneumoniae
# Experiment: Antimicrobial activity against Klebsiella pneumoniae isolate 11 expressing beta-lactamase Oxa-48, TEM-1 and Oxa-1 by Etest
# Format: functional
row,Structure (SMILES),MIC [µg/mL]
1,CCN1CCN(C(=O)N[C@@H](C(=O)N[C@@H]2C(=O)N3[C@@H]2SC(C)(C)[C@@H]3C(=O)O)c2ccccc2)C(=O)C1=O [PIPERACILLIN],> 512

# Test system: Klebsiella pneumoniae
# Experiment: Antimicrobial activity against Klebsiella pneumoniae containing PFGE clone B expressing beta-lactamase Oxa-48, TEM-1, CTX-M-15 and Oxa-1 by Etest in presence of beta-lactamase inhibitor Tazobactam
# Format: functional
row,Structure (SMILES),MIC [µg/mL]
1,CCN1CCN(C(=O)N[C@@H](C(=O)N[C@@H]2C(=O)N3[C@@H]2SC(C)(C)[C@@H]3C(=O)O)c2ccccc2)C(=O)C1=O [PIPERACILLIN],> 512

# Test system: Klebsiella pneumoniae
# Experiment: Antimicrobial activity against Klebsiella pneumoniae containing PFGE clone A expressing beta-lactamase Oxa-48, TEM-1, SHV-12 and Oxa-9 by Etest
# Format: functional
row,Structure (SMILES),MIC [µg/mL]
1,CCN[C@@H]1C[C@H](N)[C@@H](O[C@H]2OC(CN)=CC[C@H]2N)[C@H](O)[C@H]1O[C@H]1OC[C@](C)(O)[C@H](NC)[C@H]1O [NETILMICIN],> 128
2,CCn1cc(C(=O)O)c(=O)c2cc(F)c(N3CCNCC3)cc21 [NORFLOXACIN],8
3,CC1COc2c(N3CCN(C)CC3)c(F)cc3c(=O)c(C(=O)O)cn1c23 (centres undefined) [OFLOXACIN],2
4,CCN1CCN(C(=O)N[C@@H](C(=O)N[C@@H]2C(=O)N3[C@@H]2SC(C)(C)[C@@H]3C(=O)O)c2ccccc2)C(=O)C1=O [PIPERACILLIN],> 512
5,CN(C)[C@@H]1C(O)=C(C(N)=O)C(=O)[C@@]2(O)C(O)=C3C(=O)c4c(O)cccc4[C@@](C)(O)[C@H]3C[C@@H]12 [TETRACYCLINE],> 256

# From ChEMBL document CHEMBL1275467, “Spread of OXA-48-positive carbapenem-resistant Klebsiella pneumoniae isolates in Istanbul, Turkey” (2008)
